{"source": "ChEMBL document CHEMBL5052835", "about": "“Slc26a3 inhibitors and use thereof” (2021)", "key": {"[1]": {"assay": "Inhibition of Slc26a3-mediated HCO3- influx/Cl efflux in rat FRT cells measured by fluorescence assay", "type": "cell-based"}, "[2]": {"system": "FRT", "assay": "Inhibition of Slc26a3-mediated Cl-/ I- exchange in rat FRT cells assessed as half-life measured by fluorescence assay", "type": "cell-based"}, "[3]": {"organism": "Mus musculus", "assay": "Inhibition of mouse CFTR at 10 uM measured by cell-based fluorescence assay"}, "[4]": {"molecular_target": "T1, Anoctamin-1 (Mus musculus) (UniProt Q8BHY3)", "T1 sequence (whole entry)": "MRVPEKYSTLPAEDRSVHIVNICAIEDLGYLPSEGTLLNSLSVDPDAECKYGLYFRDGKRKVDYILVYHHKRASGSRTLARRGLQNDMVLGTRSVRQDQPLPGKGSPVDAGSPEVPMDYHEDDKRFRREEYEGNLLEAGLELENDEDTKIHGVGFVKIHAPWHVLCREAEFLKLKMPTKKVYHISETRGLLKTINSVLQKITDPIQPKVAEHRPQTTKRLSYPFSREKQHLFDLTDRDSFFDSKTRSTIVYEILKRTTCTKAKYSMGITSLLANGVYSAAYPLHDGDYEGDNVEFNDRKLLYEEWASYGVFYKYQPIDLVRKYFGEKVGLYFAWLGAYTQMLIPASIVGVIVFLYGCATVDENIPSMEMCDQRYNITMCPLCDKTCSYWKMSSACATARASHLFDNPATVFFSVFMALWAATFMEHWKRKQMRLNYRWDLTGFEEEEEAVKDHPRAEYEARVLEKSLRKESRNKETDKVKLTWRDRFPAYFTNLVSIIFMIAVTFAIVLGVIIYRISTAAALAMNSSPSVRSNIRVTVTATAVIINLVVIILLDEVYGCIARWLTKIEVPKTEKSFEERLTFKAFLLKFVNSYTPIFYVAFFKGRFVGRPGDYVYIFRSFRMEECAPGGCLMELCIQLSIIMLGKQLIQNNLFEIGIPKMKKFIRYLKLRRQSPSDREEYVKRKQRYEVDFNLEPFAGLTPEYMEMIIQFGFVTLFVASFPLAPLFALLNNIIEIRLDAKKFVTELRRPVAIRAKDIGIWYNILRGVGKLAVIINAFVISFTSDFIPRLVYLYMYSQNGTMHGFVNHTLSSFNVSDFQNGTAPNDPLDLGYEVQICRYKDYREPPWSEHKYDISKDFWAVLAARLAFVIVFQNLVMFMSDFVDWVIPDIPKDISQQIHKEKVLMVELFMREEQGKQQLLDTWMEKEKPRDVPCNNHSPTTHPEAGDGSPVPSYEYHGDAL", "assay": "Inhibition of mouse TMEM16A at 10 uM measured by cell-based fluorescence assay"}, "[5]": {"system": "Jejunum", "assay": "Inhibition of fluid absorption in mid-jejunal loops isolated from female CD-1 mouse at 10 uM assessed as effect on reduction in loop weight/length ratio", "type": "functional, tissue-based"}, "[6]": {"system": "Jejunum", "assay": "Inhibition of fluid absorption in mid-jejunal loops isolated from female CD-1 mouse at 10 uM assessed as effect on reduction in loop weight/length ratio in presence of 10 microM tenapanor", "type": "functional, tissue-based"}, "[7]": {"system": "Mus musculus", "assay": "In vivo inhibition of slc26a3 in loperamide-induced constipation model of female CD-1 mouse at 5 mg/kg, po assessed as reduction in stool weight", "type": "functional, organism-based"}, "[8]": {"system": "Mus musculus", "assay": "In vivo inhibition of slc26a3 in loperamide-induced constipation model of female CD-1 mouse at 5 mg/kg, po assessed as reduction in pellet number", "type": "functional, organism-based"}, "[9]": {"system": "Mus musculus", "assay": "In vivo inhibition of slc26a3 in loperamide-induced constipation model of female CD-1 mouse at 5 mg/kg, po assessed as reduction in stool water content", "type": "functional, organism-based"}, "[10]": {"system": "Mus musculus", "assay": "In vivo inhibition of slc26a3 in loperamide-induced constipation model of female CD-1 mouse at 5 mg/kg, po co-administered with tenapanor assessed as reduction in stool weight", "type": "functional, organism-based"}, "[11]": {"system": "Mus musculus", "assay": "In vivo inhibition of slc26a3 in loperamide-induced constipation model of female CD-1 mouse at 5 mg/kg, po co-administered with tenapanor assessed as reduction in pellet number", "type": "functional, organism-based"}, "[12]": {"system": "Mus musculus", "assay": "In vivo inhibition of slc26a3 in loperamide-induced constipation model of female CD-1 mouse at 5 mg/kg, po co-administered with tenapanor assessed as reduction in stool water content", "type": "functional, organism-based"}, "[13]": {"system": "Mus musculus", "assay": "In vivo inhibition of slc26a3 in loperamide-induced constipation model of cystic fibrosis mouse at 5 mg/kg, po assessed as reduction in stool weight", "type": "functional, organism-based"}, "[14]": {"system": "Mus musculus", "assay": "In vivo inhibition of slc26a3 in loperamide-induced constipation model of cystic fibrosis mouse at 5 mg/kg, po assessed as reduction in stool water content", "type": "functional, organism-based"}, "[15]": {"system": "Mus musculus", "assay": "Inhibition of oxalate absorption in high oxalate and low calcium diet-induced oxalate nephropathy model of mouse at 5 mg/kg, po assessed as reduction in kidney damage", "type": "functional, organism-based"}, "[16]": {"system": "Mus musculus", "assay": "Inhibition of oxalate absorption in high oxalate and low calcium diet-induced oxalate nephropathy model of mouse at 5 mg/kg, po assessed as reduction in crystal deposition in kidney", "type": "functional, organism-based"}, "[17]": {"system": "HBE", "assay": "Inhibition of CFTR in human HBE cells at 10 uM pretreated with forskolin assessed as effect on short-circuit current responses", "type": "cell-based"}, "[18]": {"system": "HBE", "assay": "Inhibition of CaCC in human HBE cells at 10 uM pretreated with ATP assessed as effect on short-circuit current responses", "type": "cell-based"}}, "note": "pIC50: −log10 of the molar value. Calls of active or inactive are those of the source. The calls are words filed in the database; no cut-off is given here.", "data": [{"smiles": "Cc1c(CC(=O)O)c(=O)oc2c(C)c(OCc3cccc(Br)c3)ccc12", "values": [{"measurement": "pIC50", "setting": "[1]", "value": 7.00}, {"measurement": "T1/2", "setting": "[2]", "value": 30, "unit": "s"}, {"measurement": "inhibition", "setting": "[3]", "value": "inactive"}, {"measurement": "inhibition", "setting": "[4]", "value": "inactive"}, {"measurement": "inhibition", "setting": "[5]", "value": "Active"}, {"measurement": "inhibition", "setting": "[6]", "value": "Active"}, {"measurement": "inhibition", "setting": "[7]", "value": "Active"}, {"measurement": "inhibition", "setting": "[8]", "value": "Active"}, {"measurement": "inhibition", "setting": "[9]", "value": "Active"}, {"measurement": "inhibition", "setting": "[10]", "value": "Active"}, {"measurement": "inhibition", "setting": "[11]", "value": "Active"}, {"measurement": "inhibition", "setting": "[12]", "value": "Active"}, {"measurement": "inhibition", "setting": "[13]", "value": "Active"}, {"measurement": "inhibition", "setting": "[14]", "value": "Active"}, {"measurement": "inhibition", "setting": "[15]", "value": "Active"}, {"measurement": "inhibition", "setting": "[16]", "value": "Active"}, {"measurement": "inhibition", "setting": "[17]", "value": "inactive"}, {"measurement": "inhibition", "setting": "[18]", "value": "inactive"}]}]}
